One compound from patent publication US20180228861A1, “COMPOSITION FOR TREATING DIABETES AND DYSLIPIDEMIA OBTAINED FROM THE EXTRACT OF COSTUS PICTUS D.DON PLANT AND A METHOD OF PREPARING THE SAME” (ARJUNA NATURAL EXTRACTS, LTD., priority 2012, published 2018) can be followed below.

Assay [1] deals with streptozotocin-induced Type 1 diabetic model in Wistar rats. As to the kind of experiment: Blood glucose level in streptozotocin-induced Type 1 diabetic model. The assay is classed as in vivo. The settings on record: extracts 40 mg/kg orally, glibenclamide 3 mg/kg orally. As for the experimental part: Evaluation of effect of different fractions of fresh leaves of Costus pictus D. Donon streptozotocin-induced Type 1 diabetic model in Wistar rats.
The study was conducted in adult male Wistar rats weighing 200-250 gm for a period of 40 days (30 days of treatment and 10 days of induction). The animals were randomly divided into seven groups comprising six each. Diabetes was induced in all the groups except the normal control group by the intra peritoneal administration of streptozotocin at 50 mg/kg. After the induction of diabetes, one group was kept as diabetic untreated control and a positive control was maintained in which the animals were treated with standard drug, glibenclamide at 3 mg/kg orally. […] The effect of the different fractions was assessed by measuring the fasting blood glucose level, post prandial blood glucose level, serum insulin levels and glycosylated Hb. The anti hyperlipidemic effect was assessed by the estimation of total cholesterol, triglyceride, LDL cholesterol, HDL cholesterol, VLDL, muscle glycogen and liver glycogen. The antioxidant effects of the different extracts were assessed by the measuring TBARS, superoxide dismutase (SOD), catalase, reduced glutathione (GSH) and glutathione peroxidase levels (GPx). TBARS was determined by TBA assay (Ohkawa et al., 1979), SOD was measured using the nitroblue tetrazolium reduction method (Kakkar et al., 1984), Catalase was assayed using the method described by Aebi (1974). GPx was measured as described by Flohe and Gunzler (1984), GSH was measured as per the method of Jollow et al., (1974). Histopathological examination of pancreas was conducted to assess the antidiabetic effect of the different fractions of Costus pictus D. Don.
Group 3—Positive control—diabetic animals treated with glibenclamide at 3 mg/kg orally.
Group 4—diabetic animals treated with methanolic extract of fresh leaves of Costus pictus D. Don, the extract has low oxalic acid and/or oxalates content (Sample 2 prepared as per Example 1) at 40 mg/kg orally. […]

For a further assay, the system named is isolated mouse islets. The experiment in a line: In vitro insulin secretogogue effect using isolated mouse islets. The format is cell-based, mice (Swiss albino strain). As to conditions: 10 nM. From the text:
In vitro insulin secretogogue effect of the different fractions of Costus pictus D. Don using isolated mouse islets.
Four to six weeks old male mice (Swiss albino strain; weighing 25±2 g) used for the study were maintained in the optimum environmental conditions.
Pancreata isolated from animals which were euthanized with CO2 anesthesia according the method of Shewadae et al., (1999) was removed aspectically. Washed thrice with Hank's Balanced Salt Solution (HBSS) and were subjected to collagenase digestion at 37° C. The pancreata was incubated in the dissociation medium (Dulbecco's modified minimum essential medium (DMEM) supplemented with collagenase, Soybean Trypsin Inhibitor and Bovine Serum Albumin fraction V) for 10 minutes. The procedure was repeated thrice and the dissociation was stopped by addition of chilled DMEM with 10% fetal bovine serum to the pancreatic digest. The mixture was centrifuged at 200×g for 10 minutes and the supernatant was discarded. After two washings with DMEM, the pellet was seeded in culture flasks containing DMEM pH-7.2 supplemented with 10% fetal bovine serum. The flasks were incubated at 37° C. in a CO2 incubator.
The viability of the islets was checked by Trypan blue dye exclusion test (Warburton and James, 1995) and this estimate had shown >98% of the cells were viable. […]

`COc1ccc(Cl)cc1C(=O)NCCc1ccc(S(=O)(=O)NC(=O)NC2CCCCC2)cc1` [glibenclamide]: the “blood glucose levels, 0th day” value in assay [1] (0th day) was 321 mg/dL. Moreover, the “blood glucose levels, 15th day” value in assay [1] (15th day) worked out at 126 mg/dL. Further, the “blood glucose levels, 30th day” value in assay [1] (30th day) stood at 71 mg/dL. The “Thirty minutes Concentration of insulin” value with isolated mouse islets (thirty minutes) was found to be 3.77 ng/mL. Besides, the “Zero minutes Concentration of insulin” value in the assay with isolated mouse islets (zero minutes) worked out at 0.97 ng/mL.
